Results reported in patent EP0908457B1, “3-(1,2-benzisothiazol- and isoxazol-5-Y1)-2,4(1H,3H)-pyrimidinedione or thione and 3-(1,2-benzisothiazol- and isoxazol-5-y1)-4(3H)-pyrimidinone or thione herbicidal agents” (BASF AKTIENGESELLSCHAFT, priority 1997, dated 1999).

Columns and labels:
[1] = system: Monochoria vaginalis, Presl.; assay: Preemergence weed control under flooded paddy conditions, MOOVA (Monochoria); type: in vivo; conditions: preemergence, flooded paddy, rated three to four weeks after treatment
Cyperus iria = assay: Preemergence weed control under flooded paddy conditions, CYPIR (Rice Flatsedge); type: in vivo; conditions: preemergence, flooded paddy, rated three to four weeks after treatment
[2] = system: Cyperus serotinus, Rottb.; assay: Preemergence weed control under flooded paddy conditions, CYPSE (Flatsedge); type: in vivo; conditions: preemergence, rated three to four weeks after treatment
[3] = system: Oryza sativa, (L.) Tebonnet; assay: Rice tolerance to post-transplant applications under flooded paddy conditions (Example 187), ORYSAT (Rice, Tebonnet); conditions: rated three to four weeks after treatment
Sagittaria pygmaea, L. = assay: Preemergence weed control under flooded paddy conditions, SAGPY (Arrowhead (Pygmaea)); type: in vivo; conditions: preemergence, flooded paddy, rated three to four weeks after treatment
[4] = system: Echinochloa oryzoides (Ard.) Fritsch.; assay: Preemergence weed control under flooded paddy conditions, ECHORC (Watergrass (Calif.)); type: in vivo; conditions: preemergence, flooded paddy, rated three to four weeks after treatment
Further: meaning of each grade not given here.

Cn1c(C(F)(F)F)cc(=O)n(-c2cc3c(CBr)nsc3cc2F)c1=O [Example 376, 2,4(1H,3H)-Pyrimidinedione, 3-[3-(bromomethyl)-6-fluoro-1,2-benzisothiazol-5-yl]-1-methyl-6-(trifluoromethyl)-]
herbicidal effect rating, MOOVA ([1]; Rate 0.0320 kg/ha): 9.0 | herbicidal effect rating, MOOVA ([1]; Rate 0.0620 kg/ha): 9.0 | herbicidal effect rating, MOOVA ([1]; Rate 0.1250 kg/ha): 9.0 | herbicidal effect rating, MOOVA ([1]; Rate 0.2500 kg/ha): 9.0 | herbicidal effect rating, CYPIR (Cyperus iria; Rate 0.0320 kg/ha): 3.0 | herbicidal effect rating, CYPIR (Cyperus iria; Rate 0.0620 kg/ha): 8.0 | herbicidal effect rating, CYPIR (Cyperus iria; Rate 0.1250 kg/ha): 9.0 | herbicidal effect rating, CYPIR (Cyperus iria; Rate 0.2500 kg/ha): 9.0 | herbicidal effect rating, CYPSE ([2]; Rate 0.0320 kg/ha): 3.0 | herbicidal effect rating, CYPSE ([2]; Rate 0.0620 kg/ha): 4.0 | herbicidal effect rating, CYPSE ([2]; Rate 0.1250 kg/ha): 5.5 | herbicidal effect rating, CYPSE ([2]; Rate 0.2500 kg/ha): 8.0 | herbicidal effect rating ORYSAT ([3]; Rate 0.0320 kg/ha): 4.0 | herbicidal effect rating ORYSAT ([3]; Rate 0.0620 kg/ha): 6.0 | herbicidal effect rating ORYSAT ([3]; Rate 0.1250 kg/ha): 6.0 | herbicidal effect rating ORYSAT ([3]; Rate 0.2500 kg/ha): 8.5 | herbicidal effect rating, SAGPY (Sagittaria pygmaea, L.; Rate 0.0320 kg/ha): 8.0 | herbicidal effect rating, SAGPY (Sagittaria pygmaea, L.; Rate 0.0620 kg/ha): 8.5 | herbicidal effect rating, SAGPY (Sagittaria pygmaea, L.; Rate 0.1250 kg/ha): 9.0 | herbicidal effect rating, SAGPY (Sagittaria pygmaea, L.; Rate 0.2500 kg/ha): 9.0 | herbicidal effect rating, ECHORC ([4]; Rate 0.0320 kg/ha): 3.0 | herbicidal effect rating, ECHORC ([4]; Rate 0.0620 kg/ha): 5.5 | herbicidal effect rating, ECHORC ([4]; Rate 0.1250 kg/ha): 6.5 | herbicidal effect rating, ECHORC ([4]; Rate 0.2500 kg/ha): 9.0

CCOP(=O)(Cc1nsc2cc(F)c(-n3c(=O)cc(C(F)(F)F)n(C)c3=O)cc12)OCC [Example 377, 1,2-Benzisothiazole-3-methanephosphonic acid, 5-[3,6-dihydro-3-methyl-2,6-dioxo-4-(trifluoromethyl)-1(2H)-pyrimidinyl]-6-fluoro-, diethyl ester]
herbicidal effect rating, MOOVA ([1]; Rate 0.0320 kg/ha): 9.0 | herbicidal effect rating, MOOVA ([1]; Rate 0.0620 kg/ha): 9.0 | herbicidal effect rating, MOOVA ([1]; Rate 0.1250 kg/ha): 9.0 | herbicidal effect rating, MOOVA ([1]; Rate 0.2500 kg/ha): 9.0 | herbicidal effect rating, CYPIR (Cyperus iria; Rate 0.0320 kg/ha): 2.0 | herbicidal effect rating, CYPIR (Cyperus iria; Rate 0.0620 kg/ha): 3.0 | herbicidal effect rating, CYPIR (Cyperus iria; Rate 0.1250 kg/ha): 4.5 | herbicidal effect rating, CYPIR (Cyperus iria; Rate 0.2500 kg/ha): 8.0 | herbicidal effect rating, CYPSE ([2]; Rate 0.0320 kg/ha): 1.0 | herbicidal effect rating, CYPSE ([2]; Rate 0.0620 kg/ha): 3.0 | herbicidal effect rating, CYPSE ([2]; Rate 0.1250 kg/ha): 5.0 | herbicidal effect rating, CYPSE ([2]; Rate 0.2500 kg/ha): 8.5 | herbicidal effect rating ORYSAT ([3]; Rate 0.0320 kg/ha): 5.5 | herbicidal effect rating ORYSAT ([3]; Rate 0.0620 kg/ha): 6.5 | herbicidal effect rating ORYSAT ([3]; Rate 0.1250 kg/ha): 8.0 | herbicidal effect rating ORYSAT ([3]; Rate 0.2500 kg/ha): 9.0 | herbicidal effect rating, SAGPY (Sagittaria pygmaea, L.; Rate 0.0320 kg/ha): 0.0 | herbicidal effect rating, SAGPY (Sagittaria pygmaea, L.; Rate 0.0620 kg/ha): 4.0 | herbicidal effect rating, SAGPY (Sagittaria pygmaea, L.; Rate 0.1250 kg/ha): 8.5 | herbicidal effect rating, SAGPY (Sagittaria pygmaea, L.; Rate 0.2500 kg/ha): 9.0 | herbicidal effect rating, ECHORC ([4]; Rate 0.0320 kg/ha): 2.0 | herbicidal effect rating, ECHORC ([4]; Rate 0.0620 kg/ha): 5.0 | herbicidal effect rating, ECHORC ([4]; Rate 0.1250 kg/ha): 7.0 | herbicidal effect rating, ECHORC ([4]; Rate 0.2500 kg/ha): 9.0

Cn1c(C(F)(F)F)cc(=O)n(-c2cc3c(CC#N)nsc3cc2F)c1=O [Example 379, 1,2-Benzisothiazole-3-acetonitrile, 5-[3,6-dihydro-3-methyl-2,6-dioxo-4-(trifluoromethyl)-1(2H)-pyrimidinyl]-6-fluoro-]
herbicidal effect rating, MOOVA ([1]; Rate 0.0320 kg/ha): 9.0 | herbicidal effect rating, MOOVA ([1]; Rate 0.0620 kg/ha): 9.0 | herbicidal effect rating, MOOVA ([1]; Rate 0.1250 kg/ha): 9.0 | herbicidal effect rating, MOOVA ([1]; Rate 0.2500 kg/ha): 9.0 | herbicidal effect rating, CYPIR (Cyperus iria; Rate 0.0320 kg/ha): 5.5 | herbicidal effect rating, CYPIR (Cyperus iria; Rate 0.0620 kg/ha): 7.5 | herbicidal effect rating, CYPIR (Cyperus iria; Rate 0.1250 kg/ha): 9.0 | herbicidal effect rating, CYPIR (Cyperus iria; Rate 0.2500 kg/ha): 9.0 | herbicidal effect rating, CYPSE ([2]; Rate 0.0320 kg/ha): 2.5 | herbicidal effect rating, CYPSE ([2]; Rate 0.0620 kg/ha): 6.5 | herbicidal effect rating, CYPSE ([2]; Rate 0.1250 kg/ha): 8.5 | herbicidal effect rating, CYPSE ([2]; Rate 0.2500 kg/ha): 8.5 | herbicidal effect rating ORYSAT ([3]; Rate 0.0320 kg/ha): 7.0 | herbicidal effect rating ORYSAT ([3]; Rate 0.0620 kg/ha): 8.5 | herbicidal effect rating ORYSAT ([3]; Rate 0.1250 kg/ha): 9.0 | herbicidal effect rating ORYSAT ([3]; Rate 0.2500 kg/ha): 9.0 | herbicidal effect rating, SAGPY (Sagittaria pygmaea, L.; Rate 0.0320 kg/ha): 3.5 | herbicidal effect rating, SAGPY (Sagittaria pygmaea, L.; Rate 0.0620 kg/ha): 6.5 | herbicidal effect rating, SAGPY (Sagittaria pygmaea, L.; Rate 0.1250 kg/ha): 9.0 | herbicidal effect rating, SAGPY (Sagittaria pygmaea, L.; Rate 0.2500 kg/ha): 9.0 | herbicidal effect rating, ECHORC ([4]; Rate 0.0320 kg/ha): 2.0 | herbicidal effect rating, ECHORC ([4]; Rate 0.0620 kg/ha): 5.0 | herbicidal effect rating, ECHORC ([4]; Rate 0.1250 kg/ha): 7.5 | herbicidal effect rating, ECHORC ([4]; Rate 0.2500 kg/ha): 8.0
